Test in all cases: relative viability (nuclei count vs DMSO), 5 days (fraction); higher = more cells survive
Compound in assay [1]: Cn1cc(-c2cnc3ccc4ccc(CS(=O)(=O)NCc5ccccn5)cc4c(=O)c3c2)cn1 [MK-8033] + O=C(CCCCCCC(=O)Nc1ccccc1)NO [Vorinostat] (partner 1 µM)
Put shortly: (§1)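 Lung cancer cell lines in 1536-well plates were dosed by pin tool the day after seeding, either with one drug alone or with a fixed anchor-drug dose plus five library-drug doses (not always all listed) in √10 steps. After 5 days, cells were fixed and their nuclei stained in one step (final 0.05% Triton X-100, 1% formaldehyde, 1 ug/ml Hoechst), then counted on 4× images. Relative viability is the nuclei count in treated wells divided by that in vehicle wells. Values are medians of duplicate plates.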

Compound in assay [2]: CCc1c2c(nc3ccc(OC(=O)N4CCC(N5CCCCC5)CC4)cc13)-c1cc3c(c(=O)n1C2)COC(=O)[C@]3(O)CC [Irinotecan] + Cc1cc(Nc2cc(N3CCN(C)CC3)nc(Sc3ccc(NC(=O)C4CC4)cc3)n2)n[nH]1 [Tozasertib] (partner 0.1 µM)
Put shortly: as §1

Compound in assay [3]: CCc1c2c(nc3ccc(OC(=O)N4CCC(N5CCCCC5)CC4)cc13)-c1cc3c(c(=O)n1C2)COC(=O)[C@]3(O)CC [Irinotecan] + C[C@]1(O)C[C@@H](c2nc(-c3ccc4ccc(-c5ccccc5)nc4c3)c3c(N)nccn32)C1 [Linsitinib] (partner 1 µM)
Put shortly:
as §1

Compound in assay [4]: CCc1c2c(nc3ccc(OC(=O)N4CCC(N5CCCCC5)CC4)cc13)-c1cc3c(c(=O)n1C2)COC(=O)[C@]3(O)CC [Irinotecan] + N=C(N)NC(=N)NCCc1ccccc1 [Phenformin] (partner 250 µM)
Put shortly: as §1

From the supplement of paper PMC10307832 come the findings set out here.

On to UMC-11, for which the relative viability is 0.32 in assay [1] (first compound 0.02 µM); 0.345 in assay [1] (first compound 0.06325 µM); 0.46 in assay [1] (first compound 0.2 µM); 0.419 in assay [1] (first compound 0.6325 µM); 0.409 in assay [1] (first compound 2 µM); 0.194 in assay [2] (first compound 0.6325 µM). Moreover, the relative viability in assay [2] (first compound 2 µM) is 0.25; in assay [2] (first compound 6.325 µM), 0.268; in assay [2] (first compound 20 µM), 0.247; in assay [3] (first compound 0.6325 µM), 0.724; in assay [3] (first compound 2 µM), 0.49; in assay [3] (first compound 6.325 µM), 0.281. For the same cell line, the relative viability in assay [3] (first compound 20 µM) was determined as 0.22; in assay [4] (first compound 0.6325 µM), 0.294; in assay [4] (first compound 2 µM), 0.235; in assay [4] (first compound 6.325 µM), 0.196; in assay [4] (first compound 20 µM) it was 0.189.
